The test system of this test is femoral allograft. The test is described as follows: Mouse femoral allograft, micro-CT of callus (Example 1). The class given is in vivo, C57B1/6 mice. On the procedure: Femoral allograft surgeries were performed on C57B1/6 mice as previously described. Briefly, a 4 mm mid-diaphyseal segment was removed by osteotomizing the femur and a processed allograft was implanted and secured in place with a stainless steel intramedullary (IM) pin. After 1 week, 8 mice were given daily subcutaneously injections of 0.4 mg/kg PTH (1-34) (Forteo, Eli Lilly and Company, Indianapolis, Ind.) while 5 mice with grafts were given the same volume of saline daily, serving as controls. Animals were sacrificed 6 weeks after surgery, the grafted femurs were carefully dissected and cleaned without disrupting the callus, and the IM pin was carefully removed. The femurs were then stored frozen at −80° C. until evaluation. Specimens were scanned at 10.5 micron isotropic resolution using a Scanco VivaCT 40 (Scanco Medical AG, Bassersdorf, Switzerland). Callus bone volume adjacent to the graft was manually segmented from all axial slices that contained grafted bone. The mineralized callus volume, callus bone mineral density (BMD) and total mineral content (BMC) were determined.

Setting [1] is: 0.4 mg/kg PTH (1-34) s.c. daily from week 1, 6 weeks after surgery, Mean (Standard Deviation).
[2] abbreviates: vs saline, 6 weeks after surgery.

Experimental findings from US20090227503A1, “PARATHYROID HORMONE TREATMENT FOR ENHANCED ALLOGRAFT AND TISSUE-ENGINEERED RECONSTRUCTION OF BONE DEFECTS” (UNIVERSITY OF ROCHESTER, priority 2008, published 2009) are described below.

Molecules are shown by their SMILES.

For `CC[C@H](C)[C@H](NC(=O)[C@H](CCC(=O)O)NC(=O)[C@H](CO)NC(=O)[C@@H](NC(=O)[C@@H](N)CO)C(C)C)C(=O)N[C@@H](CCC(N)=O)C(=O)N[C@@H](CC(C)C)C(=O)N[C@@H](CCSC)C(=O)N[C@@H](Cc1cnc[nH]1)C(=O)N[C@@H](CC(N)=O)C(=O)N[C@@H](CC(C)C)C(=O)NCC(=O)N[C@@H](CCCCN)C(=O)N[C@@H](Cc1cnc[nH]1)C(=O)N[C@@H](CC(C)C)C(=O)N[C@@H](CC(N)=O)C(=O)N[C@@H](CO)C(=O)N[C@@H](CCSC)C(=O)N[C@@H](CCC(=O)O)C(=O)N[C@@H](CCCN=C(N)N)C(=O)N[C@H](C(=O)N[C@@H](CCC(=O)O)C(=O)N[C@@H](Cc1c[nH]c2ccccc12)C(=O)N[C@@H](CC(C)C)C(=O)N[C@@H](CCCN=C(N)N)C(=O)N[C@@H](CCCCN)C(=O)N[C@@H](CCCCN)C(=O)N[C@@H](CC(C)C)C(=O)N[C@@H](CCC(N)=O)C(=O)N[C@@H](CC(=O)O)C(=O)N[C@H](C(=O)N[C@@H](Cc1cnc[nH]1)C(=O)N[C@@H](CC(N)=O)C(=O)N[C@@H](Cc1ccccc1)C(=O)O)C(C)C)C(C)C` [PTH, PTH (1-34)], under setting [1], the “Callus BMC” value is on record as 2.77 (0.53) mg HA, the “Callus BMD” value is 665 (17) mg HA/cm^3 and the “Callus Bone Volume” value was 4.17 (0.80) mm^3. Under “6 weeks after surgery, saline 20%”, the “samples with callus bridging the graft from host to host” value turned out to be 63%. Under setting [2], the “increase in callus bone volume” value is listed as 1.9 fold, the “net increase in total callus mineral content” value came out at 60% and the “reduction in callus BMD” value is given as 13%.
